Some test systems named below: SN12C renal; EKVX NSCLC; SNB-75 CNS; RPMI-8226 leukemia; OVCAR-3 ovarian; SNB-19 CNS; UACC-62 melanoma; CCRF-CEM leukemia; HCC-2998 colon; IGROV1 ovarian.
Holding throughout (test): growth of human tumour cells (NCI), 48 h

GI50 and TGI data for 8 compounds are collected here from PubChem BioAssay (NCI).

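Test compounds were applied to cells in 96-well plates for 48 hours at 5 doses. Here, GI50 denotes the concentration required for 50% inhibition of growth. At the TGI there is no net growth.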

Turning to `Nc1ccccc1NC(=O)c1ccc(CNc2nccc(-c3cccnc3)n2)cc1`, the GI50 with SN12C renal is 2.34 µM; in the assay on EKVX NSCLC, 1.36 µM; in the assay on SNB-75 CNS, 1.43 µM; with RPMI-8226 leukemia it was 0.5 µM; in the assay with OVCAR-3 ovarian it was 1.33 µM; in the assay with SNB-19 CNS it was 3.49 µM. The GI50 with UACC-62 melanoma was 0.476 µM; with CCRF-CEM leukemia, 0.742 µM; with HCC-2998 colon it was 0.785 µM; with IGROV1 ovarian it was 2.36 µM. Besides, the TGI in the assay on SN12C renal is greater than 72.8 µM; with EKVX NSCLC it was greater than 59.1 µM; in the assay on SNB-75 CNS, greater than 25.4 µM; in the assay on RPMI-8226 leukemia, 14.6 µM; with OVCAR-3 ovarian, 4.62 µM; with SNB-19 CNS it was greater than 100 µM. Further, the TGI with UACC-62 melanoma is 2.17 µM; in the assay with CCRF-CEM leukemia it was greater than 100 µM; with HCC-2998 colon it was 2.59 µM; in the assay on IGROV1 ovarian, greater than 27.7 µM.
As to `COc1c(C)cc(O)cc1C=O`, the TGI in the assay on SN12C renal, with EKVX NSCLC, in the assay with SNB-75 CNS, in the assay with RPMI-8226 leukemia, in the assay on OVCAR-3 ovarian and in the assay on SNB-19 CNS was greater than 100 µM throughout. The TGI in the assay on UACC-62 melanoma, in the assay with CCRF-CEM leukemia, with HCC-2998 colon and in the assay on IGROV1 ovarian was greater than 100 µM throughout.
For `CN1CCC(COc2cnc(-c3cccc(Cn4nc(-c5cccc(C#N)c5)ccc4=O)c3)nc2)CC1`, the GI50 was 6.89 µM with SN12C renal; 9.45 µM in the assay with EKVX NSCLC; 1.81 µM in the assay on SNB-75 CNS; 2.64 µM in the assay with RPMI-8226 leukemia; 2.45 µM with OVCAR-3 ovarian; 4.45 µM in the assay on SNB-19 CNS. For the same compound, the GI50 is 2.07 µM with UACC-62 melanoma, 2.56 µM in the assay on CCRF-CEM leukemia, 6.34 µM with HCC-2998 colon and 6.8 µM in the assay on IGROV1 ovarian. Moreover, the TGI is 19.6 µM in the assay on SN12C renal; 40 µM in the assay with EKVX NSCLC; 5.28 µM in the assay with SNB-75 CNS; 9.21 µM in the assay on RPMI-8226 leukemia; 6.06 µM in the assay with OVCAR-3 ovarian; 25.7 µM in the assay on SNB-19 CNS. Further, the TGI worked out at 4.54 µM in the assay on UACC-62 melanoma, 19.6 µM in the assay with CCRF-CEM leukemia, 18.7 µM in the assay on HCC-2998 colon and 25.2 µM in the assay with IGROV1 ovarian.
For `Cc1cccc(-c2[nH]ncc2-c2ccc3ncccc3n2)n1`, the GI50 in the assay with SN12C renal was 9.64 µM; with EKVX NSCLC it was greater than 20.7 µM; in the assay on SNB-75 CNS it was 5.74 µM; with RPMI-8226 leukemia it was greater than 15.1 µM; in the assay on OVCAR-3 ovarian, 14.4 µM; in the assay on SNB-19 CNS it was 13.2 µM. Moreover, the GI50 is 13.7 µM with UACC-62 melanoma, 12.4 µM in the assay on CCRF-CEM leukemia, greater than 25 µM in the assay on HCC-2998 colon and 13 µM with IGROV1 ovarian. Further, the TGI with SN12C renal is greater than 25 µM; with EKVX NSCLC it was greater than 25 µM; in the assay with SNB-75 CNS it was greater than 23.9 µM; in the assay with RPMI-8226 leukemia, greater than 25 µM; in the assay on OVCAR-3 ovarian it was greater than 25 µM; in the assay on SNB-19 CNS it was greater than 25 µM. The TGI with UACC-62 melanoma, in the assay with CCRF-CEM leukemia, in the assay with HCC-2998 colon and in the assay with IGROV1 ovarian was greater than 25 µM throughout.
On to `CC(C)(C)N1CCC1CN` (stereo not given), for which the GI50 in the assay on SN12C renal, in the assay on EKVX NSCLC, in the assay on SNB-75 CNS, with RPMI-8226 leukemia, in the assay on OVCAR-3 ovarian and with SNB-19 CNS was greater than 100 µM throughout. The GI50 in the assay on UACC-62 melanoma, in the assay with CCRF-CEM leukemia, in the assay on HCC-2998 colon and with IGROV1 ovarian was greater than 100 µM in each case. In addition, the TGI in the assay on SN12C renal, in the assay on EKVX NSCLC, in the assay with SNB-75 CNS, in the assay on RPMI-8226 leukemia, in the assay on OVCAR-3 ovarian and with SNB-19 CNS was greater than 100 µM each time. Moreover, the TGI with UACC-62 melanoma, in the assay with CCRF-CEM leukemia, in the assay with HCC-2998 colon and in the assay with IGROV1 ovarian was greater than 100 µM throughout.
Consider `NS(=O)(=O)OCC1OC(n2cnc3cncnc32)C(O)C1O` (stereo not given), for which the GI50 is less than 0.01 µM with SN12C renal; 0.064 µM in the assay on EKVX NSCLC; 0.0309 µM in the assay with SNB-75 CNS; 0.0333 µM in the assay with RPMI-8226 leukemia; 0.035 µM with OVCAR-3 ovarian; 0.0126 µM with SNB-19 CNS. Moreover, the GI50 is 0.0371 µM in the assay on UACC-62 melanoma, 0.0389 µM in the assay with CCRF-CEM leukemia, 0.0312 µM in the assay on HCC-2998 colon and 0.0541 µM with IGROV1 ovarian. For the same compound, the TGI in the assay with SN12C renal is 0.0369 µM; with EKVX NSCLC it was 0.647 µM; in the assay on SNB-75 CNS, 0.4 µM; in the assay with RPMI-8226 leukemia it was 0.147 µM; in the assay on OVCAR-3 ovarian, 0.297 µM; with SNB-19 CNS, 0.0685 µM. For the same compound, the TGI in the assay with UACC-62 melanoma was 0.133 µM; in the assay on CCRF-CEM leukemia, greater than 21.1 µM; in the assay with HCC-2998 colon, 0.097 µM; in the assay on IGROV1 ovarian, 0.304 µM.
As to `COc1c(O)c(OC)c2oc(-c3ccc(O)c(O)c3)c(OC)c(=O)c2c1O`, the TGI in the assay with SN12C renal is greater than 100 µM; in the assay with EKVX NSCLC, 94 µM; in the assay on SNB-75 CNS, 11.5 µM; in the assay with RPMI-8226 leukemia, greater than 100 µM; in the assay on OVCAR-3 ovarian, 8.53 µM; in the assay with SNB-19 CNS it was greater than 100 µM. Moreover, the TGI in the assay on UACC-62 melanoma is 47.8 µM; in the assay with CCRF-CEM leukemia, greater than 100 µM; in the assay with HCC-2998 colon, 98 µM; in the assay on IGROV1 ovarian it was 25.7 µM.
Regarding `COc1cc2nccc(Oc3ccc(NC(=O)NC4CC4)c(Cl)c3)c2cc1C(N)=O`, the GI50 was 7.44 µM in the assay on SN12C renal; 26.1 µM with EKVX NSCLC; 2.82 µM in the assay on SNB-75 CNS; 22.4 µM in the assay with RPMI-8226 leukemia; 23.1 µM in the assay on OVCAR-3 ovarian; 17.7 µM in the assay on SNB-19 CNS. Further, the GI50 with UACC-62 melanoma was 19.1 µM; in the assay on CCRF-CEM leukemia, 62.6 µM; in the assay with HCC-2998 colon, greater than 100 µM; in the assay with IGROV1 ovarian it was 30.6 µM. The TGI in the assay with SN12C renal was greater than 100 µM; in the assay on EKVX NSCLC, greater than 100 µM; with SNB-75 CNS, 36.8 µM; in the assay with RPMI-8226 leukemia, greater than 100 µM; in the assay on OVCAR-3 ovarian, greater than 100 µM; in the assay on SNB-19 CNS, 62.1 µM. Besides, the TGI with UACC-62 melanoma was greater than 89.2 µM; in the assay with CCRF-CEM leukemia, greater than 100 µM; with HCC-2998 colon, greater than 100 µM; in the assay with IGROV1 ovarian, greater than 100 µM.
